Several values for one entry are separate records, joined by “and”; a condition that tells them apart may be missing. Identical values can stand only once.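 Dose response: 5 concentrations. Exposure: 48 h. Format: 96-well plates. Endpoint: linear interpolation; highest concentration if not reached. At the GI50, growth is halved. TGI denotes the concentration required for complete inhibition of growth.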
Legend:
Test in all cases: NCI anticancer screen, dose series, 48 h
SNB-19 CNS = system: SNB-19 CNS
KM12 colon = system: KM12 colon
HL-60(TB) leukemia = system: HL-60(TB) leukemia
T-47D breast = system: T-47D breast
ACHN renal = system: ACHN renal
K-562 leukemia = system: K-562 leukemia
HCT-15 colon = system: HCT-15 colon
SF-295 CNS = system: SF-295 CNS
SNB-75 CNS = system: SNB-75 CNS
CCRF-CEM leukemia = system: CCRF-CEM leukemia

SMILES	TGI (SNB-19 CNS)	TGI (KM12 colon)	TGI (HL-60(TB) leukemia)	TGI (T-47D breast)	TGI (ACHN renal)	TGI (K-562 leukemia)	TGI (HCT-15 colon)	TGI (SF-295 CNS)	TGI (SNB-75 CNS)	GI50 (SNB-19 CNS)	GI50 (HL-60(TB) leukemia)	GI50 (ACHN renal)	GI50 (K-562 leukemia)	GI50 (HCT-15 colon)	GI50 (SF-295 CNS)	GI50 (SNB-75 CNS)	GI50 (CCRF-CEM leukemia)	TGI (CCRF-CEM leukemia)	GI50 (KM12 colon)	GI50 (T-47D breast)
Clc1ccccc1-c1nc(-c2ccncc2)no1	> 100 µM	> 100 µM	29.2 µM	> 100 µM	> 100 µM	> 100 µM	> 100 µM	> 100 µM	> 100 µM											
CN(C)CCNC(=O)c1cccc2cc([N+](=O)[O-])ccc12	16.1 µM and 2.38 µM		3.02 µM and 0.541 µM	16.3 µM	2.94 µM and 0.604 µM		11.5 µM and 1.38 µM	3.77 µM and 2.66 µM	5.77 µM and 1.08 µM	2.55 µM and 0.342 µM	0.608 µM and 0.175 µM	0.384 µM and 0.127 µM	0.579 µM and 0.123 µM	1.71 µM and 0.196 µM	0.989 µM and 0.414 µM	1.37 µM and 0.38 µM	0.719 µM and 0.141 µM	6.07 µM and 0.939 µM		
Cc1cc2c(=O)cc(-c3ccc(C(F)(F)F)cc3)oc2c(C(=O)O)c1C	> 100 µM	> 100 µM			> 100 µM	> 100 µM	> 100 µM	> 100 µM	> 100 µM									> 100 µM		
CN1C(=O)N(C)C2C1NN=c1s/c(=C\c3c[nH]c4ccccc34)c(=O)n12 (stereo not given)	> 100 µM	> 100 µM	0.858 µM		> 100 µM	> 100 µM	> 100 µM	33.6 µM		0.0443 µM	0.0305 µM	0.0754 µM	0.0312 µM	0.0365 µM	0.0304 µM	< 0.0158 µM	0.0337 µM	> 100 µM	0.04 µM	
CC(C)(C)CC(C)(C)N(CSc1ccc(Cl)cc1)CSc1ccc(Cl)cc1	19.9 µM	4.55 µM	3.96 µM		11.4 µM	26 µM	11.5 µM	1.33 µM	5.68 µM	2.14 µM	1.75 µM	2.56 µM	3.49 µM	2.29 µM	0.316 µM	1.13 µM	0.366 µM	3.38 µM	0.486 µM	
NC1=NN(c2ccccc2)C(=O)C1/C(=N\NC(=O)c1cc2ccccc2cc1O)C(=O)Nc1nc([N+](=O)[O-])cs1 (stereo not given)	> 100 µM	> 80 µM	37.9 µM		> 100 µM	42.2 µM	> 74.1 µM	> 100 µM	> 100 µM									59.7 µM		
CCc1nc(-n2c(CC)nc3ccccc3c2=O)nc(N)c1-c1ccc(Cl)cc1	> 100 µM	> 100 µM	> 100 µM	> 100 µM	> 100 µM	> 100 µM	> 100 µM	> 100 µM	> 100 µM	> 81.1 µM	> 100 µM	> 27.1 µM	17.6 µM	8.91 µM	12.6 µM	> 100 µM			38.5 µM	> 60.4 µM
COc1cc[c]([Sb]([Br])([CH]=C(C)C)([CH]=C(C)C)[CH]=C(C)C)cc1	78.9 µM	25.6 µM	13.7 µM		> 100 µM	> 100 µM	> 100 µM	87.2 µM		5.4 µM	1.73 µM	21.7 µM	4.54 µM	40.5 µM	18.4 µM		5.65 µM	> 100 µM	1.98 µM	
COc1cc(CNc2nc3cc(N)cc(N)c3nc2-c2ccccc2)cc(OC)c1OC	20.8 µM	10.2 µM	> 50 µM		11.2 µM	> 50 µM	13.9 µM	5.62 µM	14.6 µM	7.22 µM	1.25 µM	5.33 µM	1.76 µM	3.27 µM	1.67 µM	0.813 µM			0.478 µM	
O=C(c1ccccn1)c1nc(-c2ccc(Cl)c(Cl)c2)nc2ccc(Cl)cc12		> 100 µM	> 100 µM		> 100 µM	> 100 µM	> 100 µM	> 100 µM	35 µM									> 100 µM		
CCC(C(=O)c1cccs1)C(O)(C(F)(F)F)C(F)(F)F (stereo not given)	> 100 µM	> 100 µM	> 100 µM	> 100 µM	> 100 µM	> 100 µM	> 100 µM	> 100 µM	> 100 µM											
N.N.N.N.N.N#N.[Cl-].[Os+7]	> 100 µM	> 100 µM					> 100 µM	> 100 µM	> 100 µM	> 100 µM				> 100 µM	> 100 µM	> 100 µM			> 100 µM	
Cc1cc(S(N)(=O)=O)c(S/C(=N\Nc2ccc([N+](=O)[O-])cc2)c2ccc(O)cc2)cc1Cl	16.1 µM	4.14 µM	> 100 µM	6.64 µM	12.9 µM	> 100 µM	23.2 µM	3.92 µM		4.46 µM	1.98 µM	3.09 µM	2.7 µM	3.54 µM	2.07 µM				1.96 µM	2.54 µM
NC(=S)N/N=C1\C(=O)N(CCc2ccccc2)C(=O)C1C(=O)NCCc1ccccc1 (stereo not given)	> 100 µM	> 100 µM			> 100 µM	> 100 µM	> 100 µM	> 100 µM	> 100 µM											
O=C(N[C@@H]1C=CCC[C@@H]1c1ccccc1)OCc1ccccc1	99.6 µM	33.9 µM	34.6 µM		64.7 µM	> 100 µM	38.3 µM	45.6 µM	60.6 µM									43.9 µM		
O=C(c1ccco1)c1ccccc1C(=O)c1ccco1	> 100 µM	> 100 µM	> 100 µM		> 100 µM	> 100 µM	> 100 µM	> 100 µM	> 100 µM									> 100 µM		
CN(C)c1ccc(/C=C/c2ccnc3ccc4ccccc4c23)cc1	> 100 µM	> 100 µM	> 100 µM	> 100 µM	57.3 µM	> 100 µM	> 100 µM		70.4 µM									> 100 µM		
CCOC(=O)/C(=C/c1ccccc1)C(=O)c1ccccc1	20.7 µM	7.54 µM		32.5 µM	6.99 µM		11.2 µM	15.2 µM	14.5 µM	5.84 µM		2.62 µM		2.97 µM	4.19 µM	2.95 µM	2.61 µM	9.44 µM	2.82 µM	6.17 µM
